# Test results from US10105357B2, “Indication of antibiotic drugs for preparation of cancer inhibition pharmaceutical composition” (LAUNX BIOMEDICAL CO., LTD., priority 2014, dated 2018).
# Like-named read-outs stand apart in the source and are kept apart here.
# How the values were obtained:
# NIH: OVCAR-3 = assay: Cell viability analysis, ovarian cancer NIH: OVCAR-3; format: cell-based, human; conditions: Homo sapiens, 72 h; NIH-OVCAR-3; repeated experiment; read-out: The results of antibiotic drug inhibiting cancer cell lines (cell viability analysis), NIH-OVCAR-3
# TOV-21G = assay: Cell viability analysis, ovarian cancer TOV-21G; format: cell-based, human; conditions: Homo sapiens, TOV21G, 72 h; TOV-21G; repeated experiment; read-out: The results of antibiotic drug inhibiting cancer cell lines (cell viability analysis), TOV-21G
# [1] = test system: AGS (Gastric Adenocarcinoma); assay: Cell viability analysis, gastric cancer AGS; format: cell-based, human; conditions: Homo sapiens, 72 h
# [2] = test system: SAS (Tongue squamous cell carcinoma); assay: Cell viability analysis, tongue cancer SAS; format: cell-based, human; conditions: Homo sapiens, 72 h; SAS; repeated experiment; read-out: The results of antibiotic drug inhibiting cancer cell lines (cell viability analysis), SAS
# [3] = test system: HI650 (Lung Adenocarcinoma); assay: Cell viability analysis, lung cancer HI650; format: cell-based, human; conditions: Homo sapiens, NCI-H1650, 72 h
# [4] = test system: HeLa (Cervix Adenocarcinoma); assay: Cell viability analysis, cervical cancer HeLa; format: cell-based, human; conditions: Homo sapiens, HeLa, 72 h, HeLa
# [5] = test system: 786-O (Renal adenocarcinoma); assay: Cell viability analysis, renal cancer 786-O; format: cell-based, human; conditions: Homo sapiens, 786-0, 72 h; 786-O; repeated experiment; read-out: The results of antibiotic drug inhibiting cancer cell lines (cell viability analysis), 786-O
# [6] = test system: A549 (Lung Adenocarcinoma); assay: Cell viability analysis, lung cancer A549; format: cell-based, human; conditions: Homo sapiens, A549, 72 h
# [7] = test system: A375 (Amelanotic Melanoma); assay: Cell viability analysis, skin cancer A375; format: cell-based, human; conditions: Homo sapiens, A-375, 72 h
# [8] = test system: TSGH-8301 (Urinary Bladder Carcinoma); assay: Cell viability analysis, bladder cancer TSGH-8301; format: cell-based, human; conditions: Homo sapiens, 72 h
# [9] = test system: MKN-45 (Gastric Adenocarcinoma); assay: Cell viability analysis, gastric cancer MKN-45; format: cell-based, human; conditions: Homo sapiens, MKN-45, 72 h
# [10] = test system: C-33A (Cervical carcinoma); assay: Cell viability analysis, cervical cancer C-33A; format: cell-based, human; conditions: Homo sapiens, 72 h; C-33A; repeated experiment; read-out: The results of antibiotic drug inhibiting cancer cell lines (cell viability analysis), C-33A
# U-2OS = assay: Cell viability analysis, osteosarcoma U-2OS; format: cell-based, human; conditions: Homo sapiens, 72 h; U2OS; repeated experiment; read-out: The results of antibiotic drug inhibiting cancer cell lines (cell viability analysis), U2OS
# [11] = test system: MDA-MB-231 (Mammary Gland, Adenocarcinoma); assay: Cell viability analysis, breast cancer MDA-MB-231; format: cell-based, human; conditions: Homo sapiens, MDA-MB-231, 72 h; MDA-MB231; repeated experiment; read-out: The results of antibiotic drug inhibiting cancer cell lines (cell viability analysis), MDA-MB231
# T24 = assay: Cell viability analysis, bladder cancer T24; format: cell-based, human; conditions: Homo sapiens, T-24, 72 h; T24; repeated experiment; read-out: The results of antibiotic drug inhibiting cancer cell lines (cell viability analysis), T24
# [12] = test system: HepG2 (Hepatocellular Carcinoma); assay: Cell viability analysis, hepatic cancer HepG2; format: cell-based, human; conditions: Homo sapiens, HepG2, 72 h
# BxPC-3 = assay: Cell viability analysis, pancreatic cancer BxPC-3; format: cell-based, human; conditions: Homo sapiens, 72 h; BxPC-3; repeated experiment; read-out: The results of antibiotic drug inhibiting cancer cell lines (cell viability analysis), BxPC-3
# [13] = test system: Hep3B (hepatocellular carcinoma); assay: Cell viability analysis, hepatic cancer Hep3B; format: cell-based, human; conditions: Homo sapiens, 72 h; Hep3B; repeated experiment; read-out: The results of antibiotic drug inhibiting cancer cell lines (cell viability analysis), Hep3B
# [14] = test system: HCT116 (p53+) (Colorectal Carcinoma)
# [15] = test system: LoVo (Colorectal Adenocarcinoma); assay: Cell viability analysis, colon cancer LoVo; format: cell-based, human; conditions: Homo sapiens, LoVo, 72 h
# [16] = test system: MCF7 (Mammary Gland, Adenocarcinoma); assay: Cell viability analysis, breast cancer MCF7; format: cell-based, human; conditions: Homo sapiens, MCF7, 72 h
# [17] = test system: PC3 (p53−) (Prostate Adenocarcinoma); assay: Cell viability analysis, prostate cancer PC3; format: cell-based, human; conditions: Homo sapiens, 72 h
# AsPC-1 = assay: Cell viability analysis, pancreatic cancer AsPC-1; format: cell-based, human; conditions: Homo sapiens, ASPC1, 72 h; AsPC-1; repeated experiment; read-out: The results of antibiotic drug inhibiting cancer cell lines (cell viability analysis), AsPC-1
# [18] = test system: BCC (basal cell carcinoma); assay: Cell viability analysis, skin cancer BCC; format: cell-based, human; conditions: Homo sapiens, 72 h; BCC; repeated experiment; read-out: The results of antibiotic drug inhibiting cancer cell lines (cell viability analysis), BCC
smiles,measurement,setting,value
CC(C)(C)CC(C)(C)c1ccc(O)c(Cc2ccc(Cl)cc2Cl)c1 [Clofoctol],viability at 10 µM,NIH: OVCAR-3,97.8%
same,viability at 10 µM,TOV-21G,73.1%
same,viability at 10 µM,"[1]; AGS, repeated experiment, read-out: The results of antibiotic drug inhibiting cancer cell lines (cell viability analysis), AGS",83.9%
same,viability at 10 µM,"[1]; drug 10 μM, 72 hours, WST-1, OD450 nm, read-out: cell viability (survival rate), AGS",86.7%
same,viability at 10 µM,[2],73.2%
same,viability at 10 µM,"[3]; H1650, repeated experiment, read-out: The results of antibiotic drug inhibiting cancer cell lines (cell viability analysis), H1650",69.6%
same,viability at 10 µM,"[3]; drug 10 μM, 72 hours, WST-1, OD450 nm, read-out: cell viability (survival rate), H1650",77%
same,viability at 10 µM,"[4]; repeated experiment, read-out: The results of antibiotic drug inhibiting cancer cell lines (cell viability analysis), HeLa",98%
same,viability at 10 µM,"[4]; drug 10 μM, 72 hours, WST-1, OD450 nm, read-out: cell viability (survival rate), HeLa",58%
same,viability at 10 µM,[5],105%
same,viability at 10 µM,"[6]; A549, repeated experiment, read-out: The results of antibiotic drug inhibiting cancer cell lines (cell viability analysis), A549",90.6%
same,viability at 10 µM,"[6]; drug 10 μM, 72 hours, WST-1, OD450 nm, read-out: cell viability (survival rate), A549",55.6%
same,viability at 10 µM,"[7]; A375, repeated experiment, read-out: The results of antibiotic drug inhibiting cancer cell lines (cell viability analysis), A375",109%
same,viability at 10 µM,"[7]; drug 10 μM, 72 hours, WST-1, OD450 nm, read-out: cell viability (survival rate), A375",34.5%
same,viability at 10 µM,"[8]; TSGH-8301, repeated experiment, read-out: The results of antibiotic drug inhibiting cancer cell lines (cell viability analysis), TSGH-8301",109%
same,viability at 10 µM,"[8]; drug 10 μM, 72 hours, WST-1, OD450 nm, read-out: cell viability (survival rate), TSGH",72.3%
same,viability at 10 µM,"[9]; MKN-45, repeated experiment, read-out: The results of antibiotic drug inhibiting cancer cell lines (cell viability analysis), MKN-45",117%
same,viability at 10 µM,"[9]; drug 10 μM, 72 hours, WST-1, OD450 nm, read-out: cell viability (survival rate), MKN-45",73.6%
same,viability at 10 µM,[10],117%
same,viability at 10 µM,U-2OS,74.9%
same,viability at 10 µM,[11],102%
same,viability at 10 µM,T24,90.8%
same,viability at 10 µM,"[12]; HepG2, repeated experiment, read-out: The results of antibiotic drug inhibiting cancer cell lines (cell viability analysis), HepG2",114%
same,viability at 10 µM,"[12]; drug 10 μM, 72 hours, WST-1, OD450 nm, read-out: cell viability (survival rate), HepG2",77.9%
same,viability at 10 µM,BxPC-3,65.8%
same,viability at 10 µM,[13],135%
same,viability,[14],76.6%
same,viability at 10 µM,"[15]; read-out: The results of antibiotic drug inhibiting cancer cell lines (cell viability analysis), LoVo, repeated experiment",67.1%
same,viability at 10 µM,"[15]; read-out: cell viability (survival rate), LoVo, drug 10 μM, 72 hours, WST-1, OD450 nm",74.7%
same,viability at 10 µM,"[16]; MCF-7, repeated experiment, read-out: The results of antibiotic drug inhibiting cancer cell lines (cell viability analysis), MCF-7",83%
same,viability at 10 µM,"[16]; drug 10 μM, 72 hours, WST-1, OD450 nm, read-out: cell viability (survival rate), MCF7",48.1%
same,viability at 10 µM,"[17]; PC-3, repeated experiment, read-out: The results of antibiotic drug inhibiting cancer cell lines (cell viability analysis), PC-3",110%
same,viability at 10 µM,"[17]; drug 10 μM, 72 hours, WST-1, OD450 nm, read-out: cell viability (survival rate), PC3",63.4%
same,viability at 10 µM,AsPC-1,78.7%
same,viability at 10 µM,[18],94.6%
